Measured values as given in patent US20080182835A1 (priority 2006, published 2008).
Where two headings read alike, the source gives them in different places.

Experiments:
[1] = system: mRNA luciferase template; assay: Rabbit Reticulocyte Lysate Translation System, luciferase mRNA translation (Western blot); type: biochemical; conditions: same test, CoCyclen data not provided
Description: CoHex is capable of preventing translation of a messenger RNA (mRNA) in vitro. The ability Co(NH3)6 to inhibit translation of an mRNA luciferase template was assessed using the Rabbit Reticulocyte Lysate Translation System (Promega) according to the manufacturer's instructions. In the example discussed below, Co(NH3)6 in various concentrations was incubated with the […] for 10 minutes before the addition of the mRNA template to the translation lysate. Translated luciferase protein was run on a 10% SDSPAGE gel for 45 min at 130 V and detected by Western blot on a PVDF membrane. Proteins were detected using a streptavidinalkaline phosphatase conjugate and Western Blue substrate according to the instructions in the Transcend Non-Radioactive Translation Detection System (Promega). In FIG. 2, Lane 1 represents the incubation of 0.01 mM Co(NH3)6. Lane 2 represents the incubation of 0.02 mM Co(NH3)6. Lane 3 represents the incubation of 0.05 mM Co(NH3)6. Lane 4 represents the incubation of 0.1 mM Co(NH3)6. Lane 5 represents the incubation of 0.2 mM Co(NH3)6. Lane 6 is a positive control in which no Co(NH3)6 is added. Lane 7 is a negative control in which no translation occurs. The lanes marked M are molecular weight marker lanes. […]

[2] = Ligand exchange with free histidine by UV-VIS and NMR; type: physicochemical; conditions: ratio 100:1 histidine to Co(NH3)6, results not shown
[3] = system: Sindbis virus; assay: Sindbis virus plaque formation assay in BHK cells; type: cell-based, Sindbis virus (633-EGFP strain); conditions: 48 hours
[4] = system: baby hamster kidney (BHK) cells; assay: Cytotoxicity, CellTiter96 Proliferation Assay on BHK cells; type: cell-based
Description: The cytotoxicity of Co(NH3)6 (Structure IV) was assessed by monitoring its ability to inhibit proliferation of baby hamster kidney (BHK) cells. BHK cells were cultured as exponentially growing subconfluent monolayers in complete growth medium, particularly Dulbecco's Modified Eagle's Medium (DMEM) supplemented with 1% (v/v) antibiotic/antimycotic agent and 10% (v/v) heat inactivated fetal bovine serum (FBS). Cells were grown in either T25 or T75 flasks (Acton, Mass.) and incubated at 37° C. under 5% CO2 atmosphere. A subculture was performed every 3-4 days.
The in vitro toxicity of Co(NH3)6 was determined using the CellTiter96® Proliferation Assay (Promega, Madison, Wis.). This quantitative calorimetric assay is based upon the enzymatic conversion of a tetrazolium salt substrate into a blue formazan product with a maximum absorbance at 570 nm. […] At the assay endpoint, the absorbance at 570 nm is directly proportional to the number of viable cells. To assess compound toxicity, BHK cells were seeded into the wells of a 96-well tissue culture microtiter plate (2×10^4 cells/well) and cultured overnight at 37° C. in a humidified atmosphere containing 5% CO2. The next day, Co(NH3)6 was diluted into tissue culture media (at final concentrations ranging from 0 to 5 mM) and incubated with the cells for 72 hrs. Triplicate wells were included for each concentration. To control for any contaminating absorbance due to the compounds, control wells containing no cells were included at each compound concentration (“no cell” wells). At the end of the 72 hour culture period, 15 μL of tetrazolium substrate was added to each well and the plate was returned to the incubator for 4 hours to allow viable cells to convert the substrate into the formazan product. At the end of the 4 hour incubation period, 100 μL of solubilization solution was added to each well and the plate was subsequently incubated overnight to completely solubilize the contents of each well to a homogeneous color. The absorbance within each of the “no cell” wells was subtracted from the absorbance measured in the corresponding wells containing cells for each concentration of Co(NH3)6.

[5] = system: Sindbis virus
Description: In these assays, Sindbis virus replication was assessed by monitoring viral structural protein synthesis using a recombinant Sindbis virus construct. In this construct, the gene encoding enhanced green fluorescent protein (EGFP) was placed under the control of the same promoter sequence that drives transcription of viral structural proteins. Thus, upon Sindbis virus replication, virally infected cells produce intracellular EGFP at levels that are proportional to the level of viral structural proteins.
BHK cells (1×10^5) were plated into the wells of 24-well plates in 1 mL of complete media and incubated with increasing concentrations of Co(NH3)6 for 6 hours prior to infection with Sindbis virus at a multiplicity of infection (moi) of 5 pfu per cell. The infection was allowed to proceed for 48 hours. In preparation for analysis by flow cytometry, cells from each well were removed and pelleted, washed with PBS, and resuspended in 500 μL of PBS. One half of each sample was analyzed directly to determine the percentage of EGFP-positive cells (percent infected cells). The other half of each sample was incubated with 5 μM propidium iodide for 1 minute prior to the determination of the percentage of non-viable cells. In all cases, analysis was performed on 1×10^4 cells.
BHK cells were pretreated with Co(NH3)6 for 6 hours prior to infection with Sindbis virus. After 48 hours post infection, both the percentage of Sindbis-infected cells (as evidenced by EGFP fluorescence) and the percentage of viable cells (as determined by the exclusion of propidium iodide (PI)) were determined as a function of Co(NH3)6 concentrations.

[6] = system: Adenovirus; assay: Flow cytometry propidium iodide viability of Adenovirus-infected A549 cells; type: cell-based; conditions: 6 hour pretreatment, 48 hours post infection, increasing concentration up to 0.0621 mM
Description: Another example of antiviral activity is an in vitro model of a double stranded DNA (dsDNA) virus infection, Adenovirus. […] The same flow cytometry procedure discussed above for Sindbis viral infection in BHK cells was used for Adenovirus viral infection in A549 cells.

[7] = system: Sindbis virus; assay: Log(PFU) per percent cell survival, plaque counts combined with CellTiter96 survival of infected BHK cells; type: cell-based; conditions: with increase in concentration, FIG. 4
Description: Because live cell counts will decrease with increasing CoHex complex due to cytotoxicity of the cells and virus replication, but increase due to the anti-viral protection of CoHex, the plaque counts may have decreased due to the fact that there were less live cells available to count. […] The data of FIG. 3C was obtained using the CellTiter96 cell proliferation assay described above for the CoHex cytotoxicity data (i.e., with respect to FIG. 1) in which the cells were further infected with 5 plaque forming units per cell of Sindbis virus in DMEM containing 2% FBS in the absence or presence of various concentrations of Co(NH3)6, then assayed periodically.
Therefore, the fraction cell survival data of FIG. 3C was combined with the log pfu data of FIG. 3A to generate a ratio, Log(PFU) per percent cell survival, which although not a physical measure, is a general model of viruses in surviving cells.

Substance: Co(NH3)6
- inhibition of protein translation relative to conventional CoCyclen structure [1]: about 10 times
- exchange of ammonia groups with free histidine [2]: does not appear to have labile ligands
- IC50 ([3]; BHK cells, read-out: IC50, inhibition of Sindbis virus plaque formation): ~100 µM
- maximal inhibition of virus replication, decrease in pfu over control ([3]; at about 2.5 mM): about 2.5 log
- cell viability ([4]; 72 hrs, at 2.5 mM): about 80%
- CC50 ([4]; 72 hrs, from FIG. 1, read-out: 50% cytotoxicity concentration (CC50)): ~3200 µM
- toxicity compared with cis-Platin ([4]; FIG. 1): much less toxic
- toxicity (inhibition of cellular proliferation) ([4]; concentrations below 0.3 mM): no significant toxicity
- toxicity (inhibition of cellular proliferation) ([4]; concentrations below 2.5 mM): only mildly toxic
- concentration of maximum toxicity ([4]; highest concentration tested): 5000 µM
- selectivity ratio CC50/IC50 ([5]; Sindbis virus over BHK cells): about 25
- percentage of EGFP-positive (Sindbis-infected) cells ([5]; at 0.15 mM): distinct decrease
- effect of timing of administration on inhibition of EGFP expression ([5]; pretreatment, co-infection or early post-treatment): equally effective
- IC50 ([5]; read-out: IC50, inhibition of EGFP expression, 6 hours pretreatment, 48 hours post infection, moi 5): 130 ± 40 µM
- survival rate of Adenovirus-infected A549 cells [6]: increase in survival rate
- Log(PFU) per percent cell survival [7]: significant decrease in viral infection
